Data: PMC9013686, “Inter-individual variation in chlorpyrifos toxicokinetics characterized by physiologically based kinetic (PBK) and Monte Carlo simulation comparing human liver microsome and Supersome™ cytochromes P450 (CYP)-specific kinetic data as model input” (Archives of Toxicology, 2022)

Experiment: PBK modelling with Monte Carlo simulation (Supersome-based and HLM-based)
Design: species or system human
Details: oral 0.5 mg/kg bw CPF, in vivo data Nolan et al. [1984]
From the text: Compared to the PBK model of Zhao et al. ([2019]), only the fractional absorption was changed to 0.462, which is the mean value of reported fa values from Timchalk et al. ([2002]) (fa = 0.224) and Nolan et al. ([1984]) (fa = 0.7), while for the other model parameters (non-kinetic), the mean values as reported in Zhao et al. ([2019]) were used.
Compared to the model of Zhao et al. ([2019]), in the Supersome™-based PBK model approach, the kinetic parameters of pathway 1 and pathway 2 were replaced from HLM-derived values to Supersome™-derived values, while the kinetic parameters of pathway 3 were kept the same. For pathway 4, instead of using the reported kinetic parameters from Mosquin et al. ([2009]), the calculated mean values of kinetic parameters obtained based on 25 individual HP samples derived by the present study were used. […]
The performance of the Supersome™-based PBK model and the HLM-based PBK model (biphasic) were evaluated by comparing their predicted time-dependent TCPy and CPF blood concentrations including the maximum total (bound and unbound) blood concentration (Cmax) or time-dependent blood concentration, and the cumulative time-dependent urinary TCPy excretion with corresponding available in vivo data (Drevenkar et al. [1993]; Nolan et al. [1984]; Timchalk et al. [2002]) upon similar dosing regimens or estimated dose level. […]

Question: Which results are given for Oc1nc(Cl)c(Cl)cc1Cl [TCPy, 3,5,6-trichloro-2-pyridinol]?
Answer: predicted blood Cmax versus mean in vivo Cmax (both PBK models): 2.2 fold; predicted urinary excretion at 120 h versus in vivo value: 0.8 fold
